Test results as given in ChEMBL document CHEMBL1155959, “Inhibitory effects of polymethoxy flavones isolated from Citrus reticulate on degranulation in rat basophilic leukemia RBL-2H3: enhanced inhibition by their combination” (Bioorg Med Chem, 2008).
The source made the active and inactive calls. The calls are words filed in the database; no cut-off is given here.

Columns and labels:
[1] = test system: Radical scavenging activity; test: Antioxidant activity assessed as DPPH radical scavenging activity; format: functional
RBL-2H3 [2] = test: Effect on antigen-stimulated intracellular ROS production in IgE-sensitized CM-H2DCF-DA-treated rat RBL-2H3 cells assessed as increase in 2',7'-dichlorofluorescein oxidation at 50 uM after 30 mins in presence of dinitrophenylated bovine serum albumin; format: functional, cell-based
[3] = biological target: Tyrosine-protein kinase Lyn (Rattus norvegicus) (UniProt Q07014); test: Inhibition of Lyn phosphorylation in antigen-stimulated rat RBL-2H3 cells at 50 uM by Western blot analysis in presence of dinitrophenylated bovine serum albumin; format: cell-based
[4] = biological target: Tyrosine-protein kinase SYK (Rattus norvegicus) (UniProt Q64725); test: Inhibition of Syk phosphorylation in antigen-stimulated rat RBL-2H3 cells at 50 uM by Western blot analysis in presence of dinitrophenylated bovine serum albumin; format: cell-based
[5] = biological target: T1, 1-phosphatidylinositol 4,5-bisphosphate phosphodiesterase gamma-1 (Rattus norvegicus) (UniProt P10686); test: Inhibition of PLC-gamma-1/gamma-2 phosphorylation in antigen-stimulated rat RBL-2H3 cells at 50 uM by Western blot analysis in presence of dinitrophenylated bovine serum albumin; format: cell-based
T1 sequence (whole entry): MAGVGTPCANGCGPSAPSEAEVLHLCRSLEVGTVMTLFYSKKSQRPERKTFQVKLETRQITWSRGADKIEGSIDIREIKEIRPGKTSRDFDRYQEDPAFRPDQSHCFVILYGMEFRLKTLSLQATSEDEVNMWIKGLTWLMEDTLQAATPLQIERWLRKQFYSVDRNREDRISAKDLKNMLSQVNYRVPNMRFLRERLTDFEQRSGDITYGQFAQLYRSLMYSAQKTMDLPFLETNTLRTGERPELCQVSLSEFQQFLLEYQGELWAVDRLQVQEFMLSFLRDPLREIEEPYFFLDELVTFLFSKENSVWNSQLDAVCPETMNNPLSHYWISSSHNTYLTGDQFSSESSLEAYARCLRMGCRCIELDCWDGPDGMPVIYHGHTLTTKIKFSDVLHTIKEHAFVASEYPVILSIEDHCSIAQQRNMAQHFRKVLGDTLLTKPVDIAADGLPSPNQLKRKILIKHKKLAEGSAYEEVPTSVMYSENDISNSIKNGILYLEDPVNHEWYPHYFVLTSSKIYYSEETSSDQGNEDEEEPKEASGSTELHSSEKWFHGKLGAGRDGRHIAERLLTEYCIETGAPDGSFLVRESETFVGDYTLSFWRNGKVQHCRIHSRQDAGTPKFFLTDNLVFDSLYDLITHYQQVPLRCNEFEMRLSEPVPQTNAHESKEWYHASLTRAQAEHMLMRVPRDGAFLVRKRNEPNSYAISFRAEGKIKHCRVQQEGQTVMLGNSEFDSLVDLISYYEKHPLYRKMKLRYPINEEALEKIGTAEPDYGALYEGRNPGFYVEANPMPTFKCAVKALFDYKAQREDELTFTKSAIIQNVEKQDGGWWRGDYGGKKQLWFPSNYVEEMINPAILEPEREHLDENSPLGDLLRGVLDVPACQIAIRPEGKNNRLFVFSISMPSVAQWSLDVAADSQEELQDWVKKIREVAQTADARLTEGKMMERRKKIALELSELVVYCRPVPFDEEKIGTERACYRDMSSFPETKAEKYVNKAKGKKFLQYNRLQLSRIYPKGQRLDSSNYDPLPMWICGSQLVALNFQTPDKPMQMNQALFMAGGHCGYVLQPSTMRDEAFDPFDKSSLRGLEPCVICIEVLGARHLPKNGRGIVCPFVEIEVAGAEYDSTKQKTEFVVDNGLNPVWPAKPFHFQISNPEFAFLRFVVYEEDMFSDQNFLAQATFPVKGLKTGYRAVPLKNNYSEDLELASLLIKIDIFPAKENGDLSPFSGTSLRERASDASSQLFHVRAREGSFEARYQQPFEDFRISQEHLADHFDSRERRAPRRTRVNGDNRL

[6] = biological target: Mitogen-activated protein kinase 1 and 3 (ERK2 and ERK1) (Rattus norvegicus) (UniProt P63086+P21708); test: Inhibition of ERK1/2 phosphorylation in antigen-stimulated rat RBL-2H3 cells at 50 uM by Western blot analysis in presence of dinitrophenylated bovine serum albumin; format: cell-based
[7] = biological target: Mitogen-activated protein kinase 8 (Rattus norvegicus) (UniProt P49185); test: Inhibition of JNK1/2 phosphorylation in antigen-stimulated rat RBL-2H3 cells at 50 uM by Western blot analysis in presence of dinitrophenylated bovine serum albumin; format: cell-based
RBL-2H3 [8] = test: Inhibition of p38 MAPK phosphorylation in antigen-stimulated rat RBL-2H3 cells at 50 uM by Western blot analysis in presence of dinitrophenylated bovine serum albumin; format: cell-based
RBL-2H3 [9] = test: Suppression of degranulation in IgE-sensitized rat RBL-2H3 cells assessed as inhibition of antigen-stimulated histamine release after 30 mins in presence of dinitrophenylated bovine serum albumin; format: functional, cell-based
RBL-2H3 [10] = test: Suppression of degranulation in IgE-sensitized rat RBL-2H3 cells assessed as inhibition of A-23187-stimulated histamine release after 30 mins; format: functional, cell-based
RBL-2H3 [11] = test: Inhibition of degranulation in IgE-sensitized rat RBL-2H3 cells assessed as inhibition of antigen-stimulated intracellular calcium elevation after 30 mins in presence of dinitrophenylated bovine serum albumin; format: functional, cell-based

Chain of Tyrosine-protein kinase Lyn (Rattus norvegicus) (Q07014 whole entry): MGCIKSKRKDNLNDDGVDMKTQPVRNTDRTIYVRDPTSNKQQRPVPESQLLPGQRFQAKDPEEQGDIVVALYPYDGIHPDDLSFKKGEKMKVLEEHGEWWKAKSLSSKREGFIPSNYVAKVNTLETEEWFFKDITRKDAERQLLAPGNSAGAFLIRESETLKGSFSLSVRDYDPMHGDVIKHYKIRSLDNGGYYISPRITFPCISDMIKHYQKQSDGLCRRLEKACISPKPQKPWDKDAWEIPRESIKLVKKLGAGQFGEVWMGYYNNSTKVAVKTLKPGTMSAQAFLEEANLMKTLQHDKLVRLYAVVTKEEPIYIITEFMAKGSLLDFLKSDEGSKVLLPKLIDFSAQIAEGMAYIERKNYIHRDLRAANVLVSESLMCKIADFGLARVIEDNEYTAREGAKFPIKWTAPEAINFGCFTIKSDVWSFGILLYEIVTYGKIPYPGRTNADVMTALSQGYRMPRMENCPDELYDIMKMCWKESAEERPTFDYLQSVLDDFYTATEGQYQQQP
Chain of Mitogen-activated protein kinase 8 (Rattus norvegicus) (P49185 whole entry): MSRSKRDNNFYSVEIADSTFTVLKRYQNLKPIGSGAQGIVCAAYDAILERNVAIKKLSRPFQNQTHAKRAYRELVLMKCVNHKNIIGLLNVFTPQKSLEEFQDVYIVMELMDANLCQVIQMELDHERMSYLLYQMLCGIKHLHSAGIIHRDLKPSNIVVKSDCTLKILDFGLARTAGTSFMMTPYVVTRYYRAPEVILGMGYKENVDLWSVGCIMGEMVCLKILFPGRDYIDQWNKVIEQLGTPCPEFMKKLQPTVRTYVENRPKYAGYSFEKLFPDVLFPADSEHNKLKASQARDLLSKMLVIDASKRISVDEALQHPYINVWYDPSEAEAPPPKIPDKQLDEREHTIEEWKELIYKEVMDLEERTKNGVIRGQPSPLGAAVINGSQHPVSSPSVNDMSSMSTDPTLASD
Chain of Tyrosine-protein kinase SYK (Rattus norvegicus) (Q64725 whole entry, looked up): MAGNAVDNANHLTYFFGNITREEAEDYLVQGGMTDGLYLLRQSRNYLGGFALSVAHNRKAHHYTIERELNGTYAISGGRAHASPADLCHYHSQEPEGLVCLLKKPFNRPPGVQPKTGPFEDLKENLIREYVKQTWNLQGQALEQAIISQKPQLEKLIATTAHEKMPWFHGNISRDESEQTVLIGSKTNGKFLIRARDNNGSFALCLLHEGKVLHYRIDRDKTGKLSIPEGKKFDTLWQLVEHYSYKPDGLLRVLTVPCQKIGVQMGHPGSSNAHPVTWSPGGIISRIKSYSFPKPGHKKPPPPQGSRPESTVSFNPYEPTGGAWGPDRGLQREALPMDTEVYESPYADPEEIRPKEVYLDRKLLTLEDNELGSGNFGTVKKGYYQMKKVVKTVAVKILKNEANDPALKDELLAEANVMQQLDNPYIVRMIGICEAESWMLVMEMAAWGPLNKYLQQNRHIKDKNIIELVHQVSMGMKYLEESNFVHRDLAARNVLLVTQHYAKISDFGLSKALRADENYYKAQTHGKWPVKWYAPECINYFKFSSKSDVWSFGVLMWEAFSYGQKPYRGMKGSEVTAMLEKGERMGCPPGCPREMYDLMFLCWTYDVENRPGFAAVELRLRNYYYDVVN
Chain of Mitogen-activated protein kinase 1 and 3 (ERK2 and ERK1) (Rattus norvegicus) (P21708 whole entry, looked up): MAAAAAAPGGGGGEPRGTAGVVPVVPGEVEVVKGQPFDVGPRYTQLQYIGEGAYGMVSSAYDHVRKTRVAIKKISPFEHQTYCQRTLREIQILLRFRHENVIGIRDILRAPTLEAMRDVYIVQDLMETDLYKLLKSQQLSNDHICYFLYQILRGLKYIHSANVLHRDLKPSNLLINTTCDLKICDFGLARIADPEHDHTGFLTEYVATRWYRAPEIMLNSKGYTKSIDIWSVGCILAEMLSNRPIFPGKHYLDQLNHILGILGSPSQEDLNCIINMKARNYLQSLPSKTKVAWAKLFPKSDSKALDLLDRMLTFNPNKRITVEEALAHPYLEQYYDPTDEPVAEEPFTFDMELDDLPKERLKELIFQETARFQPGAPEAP
Chain of Mitogen-activated protein kinase 1 and 3 (ERK2 and ERK1) (Rattus norvegicus) (P63086 whole entry, looked up): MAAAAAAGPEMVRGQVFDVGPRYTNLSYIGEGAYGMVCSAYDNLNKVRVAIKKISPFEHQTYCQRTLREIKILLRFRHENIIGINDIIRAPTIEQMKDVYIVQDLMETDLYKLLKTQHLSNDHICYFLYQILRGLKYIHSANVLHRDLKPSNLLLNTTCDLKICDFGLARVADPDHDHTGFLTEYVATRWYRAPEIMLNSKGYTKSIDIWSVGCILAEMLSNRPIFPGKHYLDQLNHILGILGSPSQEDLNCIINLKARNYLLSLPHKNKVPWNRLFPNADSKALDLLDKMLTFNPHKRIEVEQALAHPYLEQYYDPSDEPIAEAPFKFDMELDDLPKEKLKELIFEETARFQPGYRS

Compound: VITAMIN E
- ED50 [1]: 78 µM

Compound: COc1ccc(OC)c(-c2cc(=O)c3c(OC)c(OC)cc(OC)c3o2)c1
- Activity (RBL-2H3 [2]): Active
- ED50 [1]: < 100 µM
- Activity [3]: inactive
- Activity [4]: Active
- Activity [5]: Active
- Activity [6]: Active
- Activity [7]: inactive
- Activity (RBL-2H3 [8]): inactive
- Activity (RBL-2H3 [9]): Dose-dependent effect
- Activity (RBL-2H3 [10]): Active
- Activity (RBL-2H3 [11]): Active

Compound: COc1cc(-c2cc(=O)c3c(OC)c(OC)c(OC)cc3o2)cc(OC)c1OC
- Activity (RBL-2H3 [2]): Active
- ED50 [1]: < 100 µM
- Activity [3]: inactive
- Activity [4]: Active
- Activity [5]: Active
- Activity [6]: Active
- Activity [7]: inactive
- Activity (RBL-2H3 [8]): inactive
- Activity (RBL-2H3 [9]): Dose-dependent effect
- Activity (RBL-2H3 [10]): Active
- Activity (RBL-2H3 [11]): inactive

Compound: O=C1O[C@H]([C@@H](O)CO)C(O)=C1O
- ED50 [1]: 18 µM

Compound: O=C(O[C@@H]1Cc2c(O)cc(O)cc2O[C@@H]1c1cc(O)c(O)c(O)c1)c1cc(O)c(O)c(O)c1
- ED50 [1]: 7 µM

Compound: COc1ccc(-c2cc(=O)c3c(O)c(OC)c(OC)cc3o2)cc1OC
- Activity (RBL-2H3 [2]): Active
- ED50 [1]: < 100 µM
- Activity [3]: inactive
- Activity [4]: Active
- Activity [5]: Active
- Activity [6]: Active
- Activity [7]: inactive
- Activity (RBL-2H3 [8]): inactive
- Activity (RBL-2H3 [9]): Dose-dependent effect
- Activity (RBL-2H3 [10]): Active
- Activity (RBL-2H3 [11]): Active
